Legend:
[1] = test system: MDA-MB-231; assay: Antiinvasive activity in human MDA-MB-231 cells assessed as inhibition of EGF-induced cell invasion after 3.5 hrs; type: functional, cell-based; conditions: MDA-MB-231, 3.5 h
[2] = test system: RAW264.7; assay: Antiinflammatory activity in mouse RAW264.7 cells assessed as inhibition of LPS-induced nitric oxide production after 24 hrs by Griess assay; type: functional, cell-based; conditions: RAW264.7, 24 h

| IC50 [1] | IC50 [2] | Compound |
| --- | --- | --- |
| > 10 µM | > 100 µM | CC1(C)[C@H]2CC=C3[C@@H](CC[C@@]4(C)[C@@H]3OC[C@@H]4O)[C@]2(C)CC[C@@H]1O |
| > 10 µM | > 100 µM | C[C@@]1(CO)C[C@@H](O)C[C@@]2(C)[C@@H]3CC[C@](C)([C@@H](O)CO)C=C3CC[C@H]12 [KIRENOL] |
| > 10 µM | > 100 µM | Cc1ccc2c(c1)CC[C@@H]1[C@](C)(CO)C[C@@H](O)C[C@@]21C |
| 4.26 to 4.29 µM | > 100 µM | Cc1ccc2c(c1)C(=O)C[C@@H]1[C@](C)(CO)CC(=O)C[C@@]21C |
| > 10 µM | > 100 µM | CC1(C)[C@H](O)CC[C@@]2(C)[C@@H]3CC[C@](C)(O)[C@@H](CO)C=C3CC[C@H]12 |
| > 10 µM | > 100 µM | CC1(C)[C@H](O)CC[C@@]2(C)[C@@H]3CC[C@](C)([C@@H](O)CO)C=C3CC[C@H]12 [DARUTIGENOL] |
| > 10 µM | > 100 µM | C[C@]1(CO)C[C@@H](O)C[C@@]2(C)[C@@H]3CC[C@](C)([C@@H](O)CO)C=C3CC[C@H]12 |
| > 10 µM | > 100 µM | C[C@@]1(CO)C[C@@H](O)C[C@@]2(C)[C@@H]3CC[C@](C)([C@@H](O)CO)C=C3[C@@H](O)C[C@H]12 |
| > 10 µM | > 100 µM | CC1(C)[C@H](O)C[C@H](O)[C@@]2(C)[C@@H]3CC[C@](C)([C@@H](O)CO)C=C3CC[C@H]12 |
| > 10 µM | > 100 µM | C[C@@]1(CO)C[C@@H](O)C[C@@]2(C)[C@@H]3CC[C@](C)([C@H](O)CO)C=C3CC[C@H]12 |
| > 10 µM | > 100 µM | C[C@@]1(CO)C[C@H](O)C[C@@]2(C)[C@@H]3CC[C@](C)([C@@H](O)CO)C=C3CC[C@H]12 |
| > 10 µM | > 100 µM | CC1(C)[C@H](O)CC[C@@]2(C)[C@@H]3CC[C@](C)([C@@H](O)CO)C=C3C=C[C@H]12 |
| > 10 µM | > 100 µM | C[C@@]1(CO)C[C@@H](O)C[C@@]2(C)[C@@H]3CC[C@](C)(O)[C@@H](CO)C=C3CC[C@H]12 |
| 3.45 µM | > 100 µM | CC1(C)[C@H](O)CC[C@@]2(C)[C@@H]3CC[C@](C)([C@H](O)CO)C=C3CC[C@H]12 |
| > 10 µM | > 100 µM | CC1(C)[C@H](O)CC[C@@]2(C)[C@@H]3CC[C@@]4(C)[C@H](OC[C@@H]4O)C3=CC[C@H]12 |
| > 10 µM | > 100 µM | C[C@@]1(CO)C[C@@H](O)C[C@@]2(C)[C@@H]3CC[C@](C)([C@@H](O)CO)C=C3C=C[C@H]12 |
| 9.7 µM | > 100 µM | C[C@@]1(CO)C[C@@H](O)C[C@@]2(C)[C@@H]3CC[C@](C)([C@@H](O)CO)C=C3[C@H](O)C[C@H]12 |
| > 10 µM | > 100 µM | C[C@]1(CO)[C@H]2CCC3=C[C@@](C)([C@@H](O)CO)CC[C@H]3[C@]2(C)C[C@H](O)[C@H]1O |
